Experimental data published in PubChem BioAssay AID248 (DTP/NCI, 2004).
Where “and” joins values, the source holds several entries; their conditions need not be identical. Equal values may be shown once. Inconclusive results and toxic doses are left out.

System: L1210 leukemia ip in BDF1 mice, survival T/C
Assay: NCI In Vivo Anticancer Drug Screen. Data for tumor model L1210 Leukemia (intraperitoneal) in B6D2F1 (BDF1) mice
Conditions: endpoint: mean survival time, higher = longer survival
Outline: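 Ratio derived from survival: compound-dosed mice over vehicle-dosed mice, all bearing a transplantable tumor.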

[1] = dose: 100.0 mg/kg/injection, schedule: Q01DX009 (ip), vehicle: saline
[2] = dose: 100.0 mg/kg/injection, schedule: Q04DX003 (ip), vehicle: saline
[3] = dose: 200.0 mg/kg/injection, schedule: Q01DX009 (ip), vehicle: saline
[4] = dose: 200.0 mg/kg/injection, schedule: Q04DX003 (ip), vehicle: saline
[5] = dose: 400.0 mg/kg/injection, schedule: Q01DX009 (ip), vehicle: saline
[6] = dose: 400.0 mg/kg/injection, schedule: Q04DX003 (ip), vehicle: saline
[7] = dose: 100.0 mg/kg/injection, schedule: Q01DX001 (ip), vehicle: saline
[8] = dose: 200.0 mg/kg/injection, schedule: Q01DX001 (ip), vehicle: saline
[9] = dose: 400.0 mg/kg/injection, schedule: Q01DX001 (ip), vehicle: saline
[10] = dose: 50.0 mg/kg/injection, schedule: Q01DX001 (ip), vehicle: saline
[11] = dose: 100.0 mg/kg/injection, schedule: Q01DX009 (ip), vehicle: Klucel (hydroxypropylcellulose) (HPC)
[12] = dose: 100.0 mg/kg/injection, schedule: Q04DX003 (ip), vehicle: Klucel (hydroxypropylcellulose) (HPC)
[13] = dose: 200.0 mg/kg/injection, schedule: Q01DX009 (ip), vehicle: Klucel (hydroxypropylcellulose) (HPC)
[14] = dose: 200.0 mg/kg/injection, schedule: Q04DX003 (ip), vehicle: Klucel (hydroxypropylcellulose) (HPC)
[15] = dose: 400.0 mg/kg/injection, schedule: Q04DX003 (ip), vehicle: Klucel (hydroxypropylcellulose) (HPC)
[16] = dose: 50.0 mg/kg/injection, schedule: Q01DX009 (ip), vehicle: saline

With `O=C(Nc1ccc([N+](=O)[O-])cc1Cl)N(CC(O)c1ccccc1)C1CCCCC1` (stereo unspecified) the T/C [1] was 90 % of control, the T/C [2] was 108 % of control and the T/C [3] was 95 % of control. The T/C [4] was 102 % of control, the T/C [5] was 96 % of control and the T/C [6] was 100 % of control.

With `CCCCCCCCNc1ccccc1` the T/C (dose: 100.0 mg/kg/injection, schedule: Q04DX003 (ip), vehicle: saline with Tween-80) was 95 % of control, the T/C (dose: 200.0 mg/kg/injection, schedule: Q04DX003 (ip), vehicle: saline with Tween-80) was 106 % of control and the T/C (dose: 400.0 mg/kg/injection, schedule: Q04DX003 (ip), vehicle: saline with Tween-80) was 117 % of control.

`C[N+](C)(C)C1(Cc2ccc(Br)cc2)c2ccccc2-c2ccccc21` was tested, and the T/C (dose: 25.0 mg/kg/injection, schedule: Q04DX003 (ip), vehicle: saline with Tween-80) was 88 % of control.

In the case of `COc1ccc2nc(-c3ccc(C)cc3)cc(C(=O)O)c2c1`, the T/C [7] is reported as 92 % of control, the T/C [2] is reported as 96 % of control and the T/C [8] is reported as 106 % of control. For the same molecule, the T/C [4] was 94 % of control, the T/C [9] was 88 % of control and the T/C [6] was 97 % of control.

With `CN=C(NN)NN` the T/C (dose: 2.5 mg/kg/injection, schedule: Q01DX009 (ip), vehicle: saline) was 106 % of control, the T/C (dose: 5.0 mg/kg/injection, schedule: Q01DX009 (ip), vehicle: saline) was 95 % of control and the T/C (dose: 5.0 mg/kg/injection, schedule: Q04DX003 (ip), vehicle: saline) was 95 % of control. The T/C (dose: 10.0 mg/kg/injection, schedule: Q01DX001 (ip), vehicle: saline) was 102 % of control, the T/C (dose: 10.0 mg/kg/injection, schedule: Q01DX009 (ip), vehicle: saline) was 97 % of control and the T/C (dose: 10.0 mg/kg/injection, schedule: Q04DX003 (ip), vehicle: saline) was 103 % of control. For the same molecule, the T/C (dose: 20.0 mg/kg/injection, schedule: Q01DX001 (ip), vehicle: saline) was 103 % of control and the T/C (dose: 20.0 mg/kg/injection, schedule: Q04DX003 (ip), vehicle: saline) was 90 % of control.

In the case of `COC(=O)C(CCSC)NC(=O)C(C)NC(=O)c1cnc2ccccc2n1` (stereo unspecified), the T/C (dose: 100.0 mg/kg/injection, schedule: Q01DX001 (ip), vehicle: carboxymethylcellulose (CMC)) is reported as 91 % of control, the T/C (dose: 200.0 mg/kg/injection, schedule: Q01DX001 (ip), vehicle: carboxymethylcellulose (CMC)) is reported as 94 % of control and the T/C (dose: 400.0 mg/kg/injection, schedule: Q01DX001 (ip), vehicle: carboxymethylcellulose (CMC)) is reported as 98 % of control.

`O=C(O)C1C(C(=O)O)C2(Cl)C(Cl)=C(Cl)C1(Cl)C2(Cl)Cl.[Cu+2]` (stereo unspecified) was tested, and the T/C (dose: 25.0 mg/kg/injection, schedule: Q01DX001 (ip), vehicle: Klucel (hydroxypropylcellulose) (HPC)) was 92 % of control, the T/C (dose: 50.0 mg/kg/injection, schedule: Q01DX001 (ip), vehicle: Klucel (hydroxypropylcellulose) (HPC)) was 97 % of control and the T/C (dose: 50.0 mg/kg/injection, schedule: Q01DX009 (ip), vehicle: saline sonified) was 95 % of control.

For `O=C(Cc1ccccc1)OCC1CC2C=CC1C2` (stereo unspecified), the T/C (dose: 222.0 mg/kg/injection, schedule: Q01DX Z (ip), vehicle: methylcellulose (MC)) was 102 % of control, the T/C (dose: 333.0 mg/kg/injection, schedule: Q01DX Z (ip), vehicle: methylcellulose (MC)) was 93 % of control and the T/C (dose: 500.0 mg/kg/injection, schedule: Q01DX Z (ip), vehicle: methylcellulose (MC)) was 93 % of control.

For `Cc1cc(C(C)(C)C)ccc1S(=O)(=O)C1CC1c1ccccc1` (stereo unspecified), the T/C [7] was 98 % of control, the T/C [8] was 102 % of control and the T/C [9] was 98 % of control.

For `CCOC(=N)CC(=O)OCC`, the T/C [10] was 101 % of control and 110 % of control, the T/C (dose: 89.0 mg/kg/injection, schedule: Q01DX001 (ip), vehicle: saline) was 101 % of control and the T/C [7] was 104 % of control and 113 % of control. The T/C (dose: 133.0 mg/kg/injection, schedule: Q01DX001 (ip), vehicle: saline) was 101 % of control, the T/C [8] was 95 % of control and 104 % of control and 231 % of control and the T/C (dose: 300.0 mg/kg/injection, schedule: Q01DX001 (ip), vehicle: saline) was 98 % of control. For the same molecule, the T/C [9] was 95 % of control and 101 % of control.

With `CC(=O)Nc1ccccc1F` the T/C [11] was 105 % of control, the T/C [12] was 101 % of control and the T/C [13] was 105 % of control. For the same molecule, the T/C [14] was 102 % of control, the T/C (dose: 400.0 mg/kg/injection, schedule: Q01DX009 (ip), vehicle: Klucel (hydroxypropylcellulose) (HPC)) was 103 % of control and the T/C [15] was 95 % of control.

For `Cn1cnc2cc(Cl)ccc21`, the T/C [16] was 101 % of control, the T/C [1] was 104 % of control and the T/C [3] was 97 % of control.

In the case of `CCOP(=O)(/C(=C\c1ccccc1)C(=O)c1ccccc1)c1ccccc1` (stereo unspecified), the T/C [11] is reported as 96 % of control, the T/C [12] is reported as 95 % of control and the T/C [13] is reported as 95 % of control. The T/C [14] was 98 % of control, the T/C (dose: 300.0 mg/kg/injection, schedule: Q01DX009 (ip), vehicle: Klucel (hydroxypropylcellulose) (HPC)) was 90 % of control and the T/C [15] was 98 % of control.

`O=C(C(=O)c1ccc([N+](=O)[O-])cc1)c1ccccc1` was tested, and the T/C [12] was 97 % of control, the T/C [14] was 100 % of control and the T/C [15] was 94 % of control.

In the case of `CC(O)C(c1ccccc1)c1ccccc1` (stereo unspecified), the T/C (dose: 50.0 mg/kg/injection, schedule: Q01DX009 (ip), vehicle: saline with Tween-80) is reported as 94 % of control, the T/C (dose: 100.0 mg/kg/injection, schedule: Q01DX009 (ip), vehicle: saline with Tween-80) is reported as 102 % of control and the T/C (dose: 200.0 mg/kg/injection, schedule: Q01DX009 (ip), vehicle: saline with Tween-80) is reported as 97 % of control.

`CCN(CC)c1ccc(/C=C(/S)C(=O)O)cc1` was tested, and the T/C [7] was 89 % of control, the T/C [8] was 92 % of control and the T/C [9] was 92 % of control.

`O=C(Cc1ccccc1)NCCO` was tested, and the T/C [16] was 103 % of control, the T/C [1] was 98 % of control and the T/C (dose: 100.0 mg/kg/injection, schedule: Q04DX002 (ip), vehicle: saline) was 109 % of control. The T/C [3] was 101 % of control, the T/C (dose: 200.0 mg/kg/injection, schedule: Q04DX002 (ip), vehicle: saline) was 109 % of control and the T/C [5] was 97 % of control.

With `COc1ccccc1-n1c(O)c(N=Nc2ccc(Br)cc2)c(=O)n(-c2ccc(Cl)cc2)c1=S` the T/C (dose: 100.0 mg/kg/injection, schedule: Q01DX001 (ip), vehicle: Klucel (hydroxypropylcellulose) (HPC)) was 101 % of control and the T/C (dose: 200.0 mg/kg/injection, schedule: Q01DX001 (ip), vehicle: Klucel (hydroxypropylcellulose) (HPC)) was 107 % of control.

For `CCCCCCCCCCC1CCCCC1`, the T/C (dose: 50.0 mg/kg/injection, schedule: Q04DX002 (ip), vehicle: saline with Tween-80) was 91 % of control, the T/C (dose: 100.0 mg/kg/injection, schedule: Q04DX002 (ip), vehicle: saline with Tween-80) was 91 % of control and the T/C (dose: 200.0 mg/kg/injection, schedule: Q04DX002 (ip), vehicle: saline with Tween-80) was 98 % of control.

In the case of `CC(=O)OC1CCC2(C)C(CCC3C4CCC(=O)OC4(C)CC(=O)C32)C1` (stereo unspecified), the T/C (dose: 100.0 mg/kg/injection, schedule: Q04DX003 (sc), vehicle: steriod suspending solution) is reported as 104 % of control, the T/C (dose: 200.0 mg/kg/injection, schedule: Q04DX003 (sc), vehicle: steriod suspending solution) is reported as 100 % of control and the T/C (dose: 400.0 mg/kg/injection, schedule: Q04DX003 (sc), vehicle: steriod suspending solution) is reported as 97 % of control.

With `CN1NC(=O)CC1c1ccccc1` (stereo unspecified) the T/C (dose: 100.0 mg/kg/injection, schedule: Q04DX002 (ip), vehicle: Klucel (hydroxypropylcellulose) (HPC)) was 93 % of control, the T/C (dose: 200.0 mg/kg/injection, schedule: Q04DX002 (ip), vehicle: Klucel (hydroxypropylcellulose) (HPC)) was 97 % of control and the T/C (dose: 400.0 mg/kg/injection, schedule: Q04DX002 (ip), vehicle: Klucel (hydroxypropylcellulose) (HPC)) was 100 % of control.

For `N/N=C/c1ccccc1[N+](=O)[O-]`, the T/C (dose: 100.0 mg/kg/injection, schedule: Q01DX001 (ip), vehicle: other) was 97 % of control, the T/C (dose: 200.0 mg/kg/injection, schedule: Q01DX001 (ip), vehicle: other) was 95 % of control and the T/C (dose: 400.0 mg/kg/injection, schedule: Q01DX001 (ip), vehicle: other) was 111 % of control.

`COc1nc(=O)n(C2OC(CO)C(O)C2O)cc1F` (stereo unspecified) was tested, and the T/C [10] was 95 % of control, the T/C [7] was 90 % of control and the T/C [8] was 93 % of control. The T/C [9] was 90 % of control.
